From PMC6418866 (Journal of the American Chemical Society, 2019)
pIC50: −log10 of the molar value. Read-outs that look alike come from different tables or passages of the source.

Legend:
GBA [1] = details: cited from earlier work
[2] = biological target: T1, recombinant human GBA (rGBA, Cerezyme) (Homo sapiens, UniProt P04062, R534H); details: read-out: Apparent IC50, rGBA; 3 h preincubation; cited from earlier work
T1 sequence (P04062 40-536 R534H): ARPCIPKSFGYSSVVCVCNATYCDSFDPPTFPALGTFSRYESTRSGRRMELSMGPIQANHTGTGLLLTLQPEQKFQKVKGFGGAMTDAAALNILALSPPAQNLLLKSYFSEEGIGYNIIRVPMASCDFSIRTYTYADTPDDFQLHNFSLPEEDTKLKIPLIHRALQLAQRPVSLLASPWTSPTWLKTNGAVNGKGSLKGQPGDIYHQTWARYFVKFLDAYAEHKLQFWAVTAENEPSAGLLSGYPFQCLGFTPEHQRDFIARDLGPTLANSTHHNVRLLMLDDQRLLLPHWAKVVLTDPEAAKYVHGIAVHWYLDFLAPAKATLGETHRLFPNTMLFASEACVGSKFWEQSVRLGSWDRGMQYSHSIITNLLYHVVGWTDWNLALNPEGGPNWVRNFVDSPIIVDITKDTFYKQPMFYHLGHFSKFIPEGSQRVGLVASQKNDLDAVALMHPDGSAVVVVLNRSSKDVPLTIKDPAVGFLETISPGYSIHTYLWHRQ

[3] = biological target: recombinant human GAA (rGAA, Myozyme) (Homo sapiens, UniProt P10253); experiment: In vitro inhibition of rGAA; details: IC50 ratio
ER α-glucosidase GANAB = experiment: In vivo GANAB labeling in zebrafish larvae, competitive ABPP; details: 0.1–10 μM, 5 days in vivo
[4] = test system: lysosomal β-glucuronidase GUSB; experiment: In vivo GUSB labeling in zebrafish larvae, competitive ABPP; details: 0.1–10 μM, 5 days in vivo
GAA = biological target: T2, GAA (Danio rerio, UniProt A0A8M1QKP5); experiment: In vivo GAA inactivation in zebrafish larvae, ABP labeling; details: 0.1–10 μM, 5 days in vivo
T2 sequence (A0A8M1QKP5 31-918): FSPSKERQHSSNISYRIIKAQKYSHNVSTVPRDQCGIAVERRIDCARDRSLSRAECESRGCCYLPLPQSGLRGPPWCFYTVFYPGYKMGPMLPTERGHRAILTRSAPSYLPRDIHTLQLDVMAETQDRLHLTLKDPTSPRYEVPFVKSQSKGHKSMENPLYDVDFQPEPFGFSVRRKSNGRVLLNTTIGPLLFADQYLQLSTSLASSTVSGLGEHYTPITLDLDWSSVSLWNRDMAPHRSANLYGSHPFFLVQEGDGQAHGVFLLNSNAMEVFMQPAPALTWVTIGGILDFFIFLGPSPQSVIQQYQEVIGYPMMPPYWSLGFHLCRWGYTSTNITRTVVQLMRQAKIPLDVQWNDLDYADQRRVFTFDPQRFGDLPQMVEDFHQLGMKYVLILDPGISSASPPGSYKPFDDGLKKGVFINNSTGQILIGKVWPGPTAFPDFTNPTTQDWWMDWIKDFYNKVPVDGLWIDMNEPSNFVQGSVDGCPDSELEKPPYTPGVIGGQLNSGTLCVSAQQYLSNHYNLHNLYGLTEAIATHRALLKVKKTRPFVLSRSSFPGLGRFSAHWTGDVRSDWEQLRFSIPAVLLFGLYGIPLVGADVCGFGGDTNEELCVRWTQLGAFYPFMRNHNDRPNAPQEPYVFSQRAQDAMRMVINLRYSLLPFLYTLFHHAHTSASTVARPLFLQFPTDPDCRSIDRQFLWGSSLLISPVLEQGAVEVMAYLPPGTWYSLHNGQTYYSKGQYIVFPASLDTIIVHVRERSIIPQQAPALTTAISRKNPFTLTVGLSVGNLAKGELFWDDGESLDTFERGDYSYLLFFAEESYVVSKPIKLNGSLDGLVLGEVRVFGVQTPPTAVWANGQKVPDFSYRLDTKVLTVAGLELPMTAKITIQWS

[5] = test system: glucosylsphingosine (GlcSph); experiment: Glucosylsphingosine levels in treated zebrafish embryos; type: in vivo, Danio rerio; details: 0.1–10 μM inhibitor, zebrafish embryos treated 5 days
[6] = biological target: T1, recombinant human GBA (rGBA, Cerezyme); experiment: In vitro inhibition of rGBA, 4-MU fluorogenic substrate assay; details: Apparent IC50, in vitro rGBA, 3 h preincubation, 2 nM enzyme
GBA2 = biological target: T3, GBA2 (Danio rerio, UniProt E7F5W0); experiment: In vivo GBA2 inactivation in zebrafish larvae, ABP labeling; details: 0.1–10 μM, 5 days in vivo
T3 sequence (E7F5W0 1-851): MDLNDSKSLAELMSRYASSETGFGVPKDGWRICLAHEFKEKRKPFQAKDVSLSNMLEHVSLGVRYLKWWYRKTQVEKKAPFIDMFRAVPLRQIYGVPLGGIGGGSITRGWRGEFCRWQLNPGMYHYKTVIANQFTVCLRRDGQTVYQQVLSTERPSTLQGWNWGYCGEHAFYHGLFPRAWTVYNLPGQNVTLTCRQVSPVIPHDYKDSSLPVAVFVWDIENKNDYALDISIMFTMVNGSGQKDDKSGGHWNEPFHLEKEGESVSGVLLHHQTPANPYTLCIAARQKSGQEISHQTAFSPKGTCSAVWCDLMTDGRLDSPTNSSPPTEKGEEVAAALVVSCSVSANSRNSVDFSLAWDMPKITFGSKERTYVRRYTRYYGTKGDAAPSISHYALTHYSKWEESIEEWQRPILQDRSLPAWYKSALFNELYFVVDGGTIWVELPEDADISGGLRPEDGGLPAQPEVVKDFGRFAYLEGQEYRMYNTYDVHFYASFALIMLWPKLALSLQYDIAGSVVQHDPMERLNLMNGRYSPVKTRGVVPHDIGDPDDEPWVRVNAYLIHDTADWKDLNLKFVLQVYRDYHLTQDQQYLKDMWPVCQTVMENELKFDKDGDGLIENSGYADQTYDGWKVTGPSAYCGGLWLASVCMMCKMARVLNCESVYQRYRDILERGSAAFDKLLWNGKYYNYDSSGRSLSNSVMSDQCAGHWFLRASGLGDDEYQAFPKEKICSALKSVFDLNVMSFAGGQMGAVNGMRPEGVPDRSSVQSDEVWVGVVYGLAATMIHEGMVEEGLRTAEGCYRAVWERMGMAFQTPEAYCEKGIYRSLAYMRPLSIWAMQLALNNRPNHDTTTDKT

GBA [7] = biological target: T4, GBA (Danio rerio, UniProt E7EZM1); experiment: In vivo GBA inactivation in zebrafish larvae, quantified by ABP labeling; details: 0.1–10 μM, 5 days in vivo
T4 sequence (E7EZM1 20-518): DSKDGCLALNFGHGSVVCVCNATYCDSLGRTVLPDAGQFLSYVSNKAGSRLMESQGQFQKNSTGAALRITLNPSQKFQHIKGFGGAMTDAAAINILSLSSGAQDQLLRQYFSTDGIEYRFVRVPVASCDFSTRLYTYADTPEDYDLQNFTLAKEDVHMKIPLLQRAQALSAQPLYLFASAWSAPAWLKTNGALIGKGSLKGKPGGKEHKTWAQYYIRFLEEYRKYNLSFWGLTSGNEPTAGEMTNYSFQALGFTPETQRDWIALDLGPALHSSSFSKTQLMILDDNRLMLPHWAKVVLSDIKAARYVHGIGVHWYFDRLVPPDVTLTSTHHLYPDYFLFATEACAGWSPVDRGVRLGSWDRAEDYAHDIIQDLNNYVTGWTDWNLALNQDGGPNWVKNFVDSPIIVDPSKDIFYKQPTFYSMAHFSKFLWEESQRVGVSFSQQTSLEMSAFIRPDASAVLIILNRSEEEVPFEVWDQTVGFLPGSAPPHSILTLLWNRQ

LPH = experiment: In vivo LPH labeling in zebrafish larvae, competitive ABPP; details: 0.1–10 μM, 5 days in vivo

OC[C@@H]1[C@@H](O)[C@H](O)[C@@H](O)[C@@H]2O[C@H]12 [CP 2, cyclophellitol]
GBA inhibition potency (in words) (GBA [1]): high nanomolar to micromolar

O[C@H]1[C@H](O)[C@@H](O)[C@@H]2O[C@@H]2[C@@H]1O (racemic) [CBE 1, conduritol B epoxide]
pIC50 [2]: 5.37
Ratio (in vitro) GAA/GBA [3]: 444

O[C@@H]1[C@@H](O)[C@@H]2O[C@@H]2[C@H](Cn2cc(CCCOCc3ccc(-c4ccccc4)cc3)nn2)[C@H]1O [Compound 6, Biphenyl-cyclophellitol]
ABP labeling of GANAB in lysates of treated zebrafish (ER α-glucosidase GANAB): not affected
ABP labeling of GUSB in lysates of treated zebrafish [4]: not affected
ABP labeling of GAA in lysates of treated zebrafish (GAA): not affected
Elevation in the level of glucosylsphingosine (GlcSph) [5]: 10–30 fold
pIC50 [6]: 9.00
ABP labeling of GBA2 in lysates of treated zebrafish (GBA2): not affected
ABP labeling of GBA with ABP 8 and ABP 5 in lysates of treated zebrafish (GBA [7]): abrogated
ABP labeling of LPH in lysates of treated zebrafish (LPH): not affected
